Values after ≈ are worked out from the molar mass of the structure shown. Like-named read-outs stand apart in the source and are kept apart here.
Key:
E. coli DXP synthase [1] = molecular target: T1, E. coli DXP synthase (Escherichia coli, UniProt P77488); details: Table 5, value marked with reference superscript (previously reported); read-out: Ki^DXPS; cited from earlier work
T1 construct: made in house

[2] = tested on: wild-type K-12 E. coli (ATCC: MG1655); experiment: Antimicrobial activity against E. coli K-12 grown in CAMHB; format: cell-based
Description: FIG. 7A and FIG. 7B are charts showing representative growth curves are shown for BAP (FIG. 7A) and BnAP (FIG. 7B). Alkylacetylphosphonates exert dose-dependent delay in E. coli K-12 (MG 1655) growth in CAMHB. Fractional growth (measured at 16 h, blue arrow) was determined relative to the no drug control. Standardized cell cultures were exposed to increasing concentrations of acetylphosphonate, and growth was determined by measuring the OD600 for a period of 16 hours. Acetylphosphonate concentration was varied from 0-5 mM: No drug (light blue), 0.08 mM (orange), 0.16 mM (gray), 0.31 mM (yellow), 0.63 mM (blue), 1.25 mM (green), 2.5 mM (dark blue) and 5.0 mM (brown).
Thus, BnAP, PentAP, HexAP and OctAP, also shown to inhibit DXP synthase, were evaluated for antimicrobial activity against wild-type K-12 E. coli (ATCC: MG1655) grown in rich medium (CAMHB).

E. coli K-12 (BW25113) = experiment: Antimicrobial activity against E. coli K-12 grown in M9 minimal medium; format: cell-based; details: M9 minimal medium; preliminary
From the text: The product of DXP synthase, DXP, lies at a metabolic branchpoint. DXP serves as precursor not only for essential isoprenoids, but also is essential to central metabolism as a precursor to both thiamin diphosphate and pyridoxal phosphate. Thus, evaluation of antimicrobial activity of DXP synthase inhibitors in the standard, rich growth medium (CAMHB) which contains rescuing metabolites, likely underestimates the antimicrobial activities of these agents. Standard in vitro culture conditions may have poor predictive value for these agents in vivo; access to most nutrients is thought to be more difficult from the host than in nutrient rich media.

E. coli DXP synthase [3] = molecular target: T1, E. coli DXP synthase; experiment: biochemical
Description: FIG. 4A, FIG. 4B, and FIG. 4C are charts showing competitive inhibition of DXP synthase by pentylacetylphosphonate (PentAP; FIG. 4A), hexylacetylphosphonate (HexAP; FIG. 4B), and octylacetyl phosphonate (OctAP; FIG. 4C). Inhibition assays were performed as previously described^[18], [40]). […] Pyruvate concentration was varied from 12-240 μM and acetylphosphonate concentration was varied: 0 μM (∘), 10 μM (●), 25 μM (□) and 50 μM (▪). Experiments were performed in triplicate, and data were subjected to non-linear regression analysis for Ki determinations (GraphPad Prism). Representative Lineweaver-Burk plots (GraFit from Erithacus Software) are shown for PentAP (FIG. 4A), HexAP (FIG. 4B) and OctAP (FIG. 4C) to illustrate the competitive inhibition mode with respect to pyruvate.
Inhibition of DXP synthase was measured as previously described^[13], [18]. […] Acetylphosphonate concentration was varied from 0 to 250 μM. […] Experiments were performed in triplicate for BAP and in duplicate for iPrAP
In order to evaluate the inhibitory activity of BnAP against DXP synthase, a continuous spectrophotometric coupled assay was used to measure formation of DXP by monitoring IspC consumption of NADPH (340 nm). ^[2] DXP synthase reaction mixtures (previously described) including BnAP (15, 30, and 60 μM), IspC (1 μM) and NADPH (100 μM) were pre-incubated at 37° C. for 5 minutes. Initial rates were measured after the reaction was initiated by the addition of DXP synthase. Inhibition of the coupling enzyme (IspC) by BnAP was not observed up to 1.5 mM. Experiments were performed in triplicate. Double reciprocal analysis of data was carried out using GraFit version 7 from Erithacus Software.

[4] = molecular target: Porcine pyruvate dehydrogenase (PDH E1 subunit); details: Table 5, value marked with reference superscript; cited from earlier work
[5] = molecular target: T2, Porcine pyruvate dehydrogenase (PDH E1 subunit) (Sus scrofa, UniProt P29804); details: Table 5, value marked with reference superscript (previously reported); cited from earlier work
T2 construct: Ki^PDH; μM); Ki^PDH
T2 sequence (P29804 1-390): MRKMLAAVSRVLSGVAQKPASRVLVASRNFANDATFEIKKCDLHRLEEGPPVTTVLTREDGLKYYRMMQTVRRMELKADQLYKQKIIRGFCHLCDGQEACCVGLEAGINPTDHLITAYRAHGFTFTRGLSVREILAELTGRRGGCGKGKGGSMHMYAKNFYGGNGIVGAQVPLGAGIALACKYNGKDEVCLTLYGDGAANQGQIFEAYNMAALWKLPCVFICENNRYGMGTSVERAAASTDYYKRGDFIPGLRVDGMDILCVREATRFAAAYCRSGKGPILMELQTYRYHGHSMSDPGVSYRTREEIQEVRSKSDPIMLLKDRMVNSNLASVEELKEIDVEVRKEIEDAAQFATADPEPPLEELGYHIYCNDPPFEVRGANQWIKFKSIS

yeast TK = molecular target: T3, yeast TK (Saccharomyces cerevisiae, UniProt P23254); details: ref [26]; cited from earlier work
T3 sequence (P23254 1-680): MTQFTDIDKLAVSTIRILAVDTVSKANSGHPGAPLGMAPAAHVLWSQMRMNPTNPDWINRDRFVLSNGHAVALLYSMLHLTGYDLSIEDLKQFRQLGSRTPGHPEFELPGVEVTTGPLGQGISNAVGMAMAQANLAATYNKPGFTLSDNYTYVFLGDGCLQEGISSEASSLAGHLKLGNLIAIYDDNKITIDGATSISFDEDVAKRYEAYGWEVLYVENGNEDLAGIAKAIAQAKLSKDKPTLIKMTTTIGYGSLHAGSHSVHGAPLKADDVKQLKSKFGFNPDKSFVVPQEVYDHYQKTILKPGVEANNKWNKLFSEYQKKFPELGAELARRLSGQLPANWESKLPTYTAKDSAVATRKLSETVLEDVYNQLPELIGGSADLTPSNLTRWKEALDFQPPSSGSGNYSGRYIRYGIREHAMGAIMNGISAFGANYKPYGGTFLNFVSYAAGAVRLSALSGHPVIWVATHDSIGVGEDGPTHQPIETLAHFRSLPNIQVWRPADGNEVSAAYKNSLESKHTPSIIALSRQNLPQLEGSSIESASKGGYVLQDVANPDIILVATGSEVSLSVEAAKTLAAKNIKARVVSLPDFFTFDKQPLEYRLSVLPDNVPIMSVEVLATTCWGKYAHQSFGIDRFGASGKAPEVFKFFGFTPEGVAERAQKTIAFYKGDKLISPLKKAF

porcine PDH E1 subunit = format: biochemical
Description: (§1) Reaction mixtures containing 100 mM HEPES, pH 8.0, 2 mM MgCl2, 5 mM NaCl, 1 mM ThDP, 1 mg/mL BSA, 10-20 mM pyruvate, 10% DMSO v/v, and 10-300 μM nitroso substrate were pre-incubated at 37° C. for 5 min. Enzymatic reactions were initiated by addition of 0.5-2 μM DXP synthase (or 0.1 units/ml PDH) and monitored spectrophotometrically by measuring the rate of disappearance of the nitroso substrate at its corresponding λmax. Substrate concentration as a function of time was determined from absorbance values using Beer's Law. Initial reaction rates were determined from the linear range of the reaction progress curve, usually within 1-3 min. Data analysis to determine kcat and Km for each alternative substrate was carried out using GraFit version 7 from Erithacus Software.

DXP synthase = molecular target: T4, DXP synthase (Escherichia coli, UniProt P77488); experiment: Inhibition of DXP formation by nitroso substrates (HPLC-based assay); format: biochemical, E. coli; details: 30 μM D-GAP, 80 μM pyruvate, 37° C.; average ± SEM
T4 construct: made in house
T4 sequence (P77488 1-620): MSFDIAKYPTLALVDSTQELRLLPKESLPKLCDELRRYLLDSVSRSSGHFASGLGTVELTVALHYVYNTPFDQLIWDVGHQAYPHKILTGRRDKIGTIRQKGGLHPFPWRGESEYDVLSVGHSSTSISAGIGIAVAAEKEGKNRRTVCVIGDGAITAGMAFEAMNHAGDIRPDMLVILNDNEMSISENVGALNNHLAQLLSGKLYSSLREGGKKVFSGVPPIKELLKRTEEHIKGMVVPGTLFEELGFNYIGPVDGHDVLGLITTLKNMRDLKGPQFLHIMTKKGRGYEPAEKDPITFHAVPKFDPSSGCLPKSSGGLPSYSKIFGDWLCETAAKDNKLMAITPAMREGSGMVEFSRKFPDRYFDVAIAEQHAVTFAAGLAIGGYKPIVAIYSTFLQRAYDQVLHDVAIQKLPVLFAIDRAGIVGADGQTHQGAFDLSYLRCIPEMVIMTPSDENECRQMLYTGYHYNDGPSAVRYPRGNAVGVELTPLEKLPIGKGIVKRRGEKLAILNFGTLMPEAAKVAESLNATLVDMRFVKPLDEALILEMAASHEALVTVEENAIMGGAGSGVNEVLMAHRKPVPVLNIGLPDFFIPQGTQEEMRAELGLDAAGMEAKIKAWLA
Description: Enzyme reactions were initiated by addition of 0.1 μM DXP synthase. Aliquots (150 μL) of the enzymatic mixture were removed between 0.5 and 3 minutes and quenched into ice-cold methanol (150 μL). Precipitated protein was removed by centrifugation, and the supernatant was diluted in an equal volume of water. The nitroso substrate was removed by extraction into acetonitrile (3×), using a previously described freeze-extraction technique. ^[32] […] The derivatization mixtures were analyzed by HPLC as previously described. ^[19] To determine initial reaction rates in the presence of varying inhibitor concentration, the D,L-GAP and DXP hydrazone HPLC peak areas were measured, and the product concentration was determined as a percent of total peak area and plotted against reaction time. Initial rates GraFit version 7 from Erithacus Software was utilized to generate IC50 curves.

[6] = molecular target: T5, E. coli DXP synthase (DXPS) (Escherichia coli, UniProt P77488); format: biochemical; details: 10-20 mM pyruvate, pH 8.0, 10% DMSO, 37° C., average ± SEM
T5 construct: made in house
T5 sequence (P77488 1-620): T4 sequence (P77488 1-620)
Description: Reaction mixtures containing 100 mM HEPES, pH 8.0, 2 mM MgCl2, 5 mM NaCl, 1 mM ThDP, 1 mg/mL BSA, 10-20 mM pyruvate, 10% DMSO, 0.5 mM 5 mM nitroso substrate were pre-incubated at 37° C. for 5 min. […] Aliquots of enzymatic mixture were removed at various time intervals and quenched into an equal volume of cold methanol. Quenched mixtures were incubated on ice for 20 minutes. Precipitated proteins were removed by centrifugation, and the supernatant was analyzed by HPLC with UV detection using the following conditions: Flow rate=3 mL/min; Solvent A: 100 mM NH4OAc, pH 4.6; Solvent B: acetonitrile; Method: 0-100% B over 10 min. New products formed were extracted from the supernatant using ethyl acetate (3×). […] Products were subsequently characterized by mass spectrometry.
as §1, with “Enzymatic reactions were initiated by addition of 0.5-2 μM DXP synthase (or 0.1 units/ml PDH) and monitored spectrophotometrically by measuring the rate of disappearance of the nitroso substrate at its corresponding λmax.” left out

Row | SMILES | Ki (E. coli DXP synthase [1]) | antimicrobial effects against E. coli (MG1655) ([2]; FIG. 10, in words) | minimum inhibitory concentration (MIC90) ([2]; rich medium (CAMHB), 16 h) | MIC (E. coli K-12 (BW25113)) | IC50 (E. coli DXP synthase [3]; pyruvate 95 μM, D-GAP 56 μM, error 95% Confidence Interval, read-out: IC50 (DXP synthase)) | Ki^PDH/Ki^DXPS [4] | Ki [5] | substrate usage by yeast TK (yeast TK) | Km (porcine PDH E1 subunit; 10-20 mM pyruvate, pH 8.0, 37° C., average ± SEM) | Km^PDH/Km^DXPS (porcine PDH E1 subunit; ratio porcine PDH E1 vs E. coli DXPS) | IC50 (E. coli DXP synthase [3]; Table 4, read-out: In vitro DXP syn IC50) | IC50 (DXP synthase) | kcat ([6]; acceptor substrate turnover) | Km ([6]; acceptor substrate)
1 | CCCCOP(=O)(O)C(C)=O [BAP, butylacetylphosphonate, reference compound] | 5.6 ± 0.8 µM | dose-dependent inhibition | 2500 µM (≈ 450 µg/mL) | 3100 µM (≈ 558 µg/mL) | 24 ± 4 µM | 60 | 335 ± 8 µM |  |  |  |  |  |  | 
2 | COc1ccc(CCOP(=O)([O-])C(C)=O)cc1.[Li+] [Compound 4] |  |  |  |  |  |  |  | not a substrate | 408 ± 60 µM | 7.5 | 194 µM | 844 ± 170 µM | 0.015 ± 0.0017 s⁻¹ | 54 ± 13 µM

Source: US9930893B2, “Inhibitors of DXP synthase and methods of use thereof” (The Johns Hopkins University, priority 2014, dated 2018)
